In patent US20110256557A1, “IDENTIFYING PARATHYROID HORMONE AGONISTS AND ANTAGONISTS” (DISCOVERYBIOMED, INC., priority 2008, published 2011):

Experiments:
[1] = test system: luciferase reporter bearing TCF/LEF binding elements; assay: TCF/LEF luciferase reporter assay in UMR-106 cells; format: cell-based, rat
From the text: HEK293, UMR-106 and mouse embryonic fibroblast (MEF) cells were maintained in Dulbecco's Modified Eagle Medium (DMEM) with 10% Fetal Calf Serum (FCS). Mouse Wnt3a conditioned medium (Wnt3a CM) was produced from mouse L cells stably transfected with mouse Wnt3a (American Type Culture Collection; Manassas, Va.) and control conditioned medium (Control CM) was from non-transfected L cells. IgG, LRP6N-IgG, DKK1, Sclerostin, VSVG-LRP6N and Myc-Fz8CRD conditioned media were produced from HEK 293 cells transfected with the individual plasmids. Transfections were carried out using lipofectamine reagent (Invitrogen; Carlsbad, Calif.). Luciferase assays were carried out in either UMR-106 or HEK 293 cells as described previously (Wan et al., Am. J. Pathol. 166:1379-92 (2005)), with 0.3 μg of TCF-Luc reporter plasmid plus 50 ng of Renilla luciferase plasmid (internal control) per well in the 12-well plate. Experiments were repeated at least three times with triplicate for each experiment.

β-catenin = assay: Western blot of cytosolic β-catenin in UMR-106 cells; format: cell-based, rat
Procedure: (§1) Cells were harvested in cavitation buffer (5 mM HEPES, pH 7.4, 3 mM MgCl2, 1 mM EGTA, 250 mM sucrose) containing protease and phosphatase inhibitors and homogenized by nitrogen cavitation (200 p.s.i., for 5 minutes) in a cell disruption bomb (Parr Instrument Co.; Moline, Ill.). The cell homogenate was centrifuged twice at 700 g for 10 minutes to pellet the nuclei. The supernatant was further centrifuged at 100,000 g (Beckman SW50.1 rotor) for 1 hour to separate the membrane and cytosol fractions, and the resulting membrane pellet was washed three times with cavitation buffer before use in the assays (Zhang et al., Biochem. J. 343:541-9 (1999)). Immunoprecipitation and Western blot analysis of cell lysates were performed as described previously (Wan et al., Am. J. Pathol. 166:1379-92 (2005)).

LRP6 = LRP6 phosphorylation at PPPSP motifs, western blotting with Ab1490, UMR-106 cells; format: cell-based, rat; settings: cells not given
Procedure: as §1
As phosphorylation of LRP6 at the PPPSP motifs plays a crucial role in activating downstream β-catenin signaling by Wnt, whether PTH induces phosphorylation of LRP6 at PPPSP motifs (Mao et al., Mol. Cell. 7:801-9 (2001); Tamai et al., Mol. Cell. 13:149-56 (2004); Davidson et al., Nature 438:867-72 (2005); Zeng et al., Nature 438:873-7 (2005)). Immunoprecipitated LRP6 from extracts of PTH-treated UMR-106 cells were monitored for their phosphorylation, by western blotting, with an antibody that recognizes phosphorylated PPPSP motifs (Ab1490) (Tamai et al., Mol. Cell. 13:149-56 (2004)). […] Phosphorylation of PPPSP motifs is required for axin recruitment from cytoplasm to LRP6 at cell membrane. […] Fz8CRD, a competitive inhibitor of the Wnt receptor Fz (Hsieh et al., Proc. Natl. Acad. Sci. USA 96:3546-55 (1999)), was used to exclude the possibility that these PTH effects are mediated through promotion of Wnts production or sensitization of Wnt-stimulated signaling. […] In contrast, LRP6N blocked PTH-stimulated LRP6 phosphorylation (FIG. 33).

axin-LRP6 binding = assay: Co-IP of axin binding to LRP6 in HEK293 cells; format: cell-based
Procedure: as §1

β-catenin in osteoblasts = assay: Immunohistochemistry of β-catenin in bone sections after single-dose injection, rats; format: in vivo, rat; settings: for positive staining of β-catenin in osteoblasts: five month-old rats, single i.v. dose 40 μg/kg, 8 hours after injection
Procedure: For the experiments in which rats or mice were administered PTH as single-dose injection, five-month-old male Sprague Dawley rats (Charles River Laboratories; Wilmington, Mass.) or two-month-old male C57BL/J6 mice (Jackson Laboratory; Bar Harbor, Me.) (6 per group) were administered a single dose of either vehicle (1 mM acetic acid in sterile PBS) or PTH (1-34) (Bachem Inc.; Torrance, Calif.) at 40 μg/kg in a volume of 100 μl. In the mouse model, mouse recombinant Wnt3a (R&D Systems; Minneapolis, Minn.) was injected at 25 μg/kg in a volume of 100 μl. All treatments were through bolus intravenous injection via the tail vein. Rats/mice were sacrificed at 0.5, 2, 8 and 24 hours after injection.
Formalin-fixed femur or tibia tissue sections of 5 μm thickness from rats or mice were processed with antigen retrieval and hydrogen peroxide treatment prior to incubation with primary monoclonal antibody specific for β-catenin (BD Biosciences; San Jose, Calif.), goat polyclonal antibody sclerostin (R&D Systems; Minneapolis, Minn.) or rabbit polyclonal phosphorylated LRP6 (Ab1490) for 1 hour at room temperature or overnight at 4° C. Negative controls were obtained by replacing the primary antibodies with irrelevant control isotype IgG. […] In the rat model, numbers of total osteoblasts and numbers of β-catenin- or p-LRP6-positive osteoblasts were counted in three random high power fields at metaphysis subjacent to the epiphyseal growth plates or the diaphyseal hematopoietic bone marrow per specimen, and a total of six specimens in each group were used. In the mouse model, numbers of total osteoblasts and numbers of β-catenin-positive osteoblasts were counted in three random high power fields in a 2-mm square, 1 mm distal to the lowest point of the growth plate in the secondary spongiosa. Numbers of total osteocytes and numbers of sclerostin-positive osteocytes were counted in three random high power fields per trabecular bone section or cortical bone section, and a total of six specimens in each group were used.

PTH1R = target: T1, PTH1R (Homo sapiens, UniProt Q03431); assay: Co-immunoprecipitation of exogenous LRP5/LRP6 constructs with PTH1R in HEK293 cells; format: cell-based; settings: co-expressed with PTH1R in HEK293 cells
T1 sequence (Q03431 27-593): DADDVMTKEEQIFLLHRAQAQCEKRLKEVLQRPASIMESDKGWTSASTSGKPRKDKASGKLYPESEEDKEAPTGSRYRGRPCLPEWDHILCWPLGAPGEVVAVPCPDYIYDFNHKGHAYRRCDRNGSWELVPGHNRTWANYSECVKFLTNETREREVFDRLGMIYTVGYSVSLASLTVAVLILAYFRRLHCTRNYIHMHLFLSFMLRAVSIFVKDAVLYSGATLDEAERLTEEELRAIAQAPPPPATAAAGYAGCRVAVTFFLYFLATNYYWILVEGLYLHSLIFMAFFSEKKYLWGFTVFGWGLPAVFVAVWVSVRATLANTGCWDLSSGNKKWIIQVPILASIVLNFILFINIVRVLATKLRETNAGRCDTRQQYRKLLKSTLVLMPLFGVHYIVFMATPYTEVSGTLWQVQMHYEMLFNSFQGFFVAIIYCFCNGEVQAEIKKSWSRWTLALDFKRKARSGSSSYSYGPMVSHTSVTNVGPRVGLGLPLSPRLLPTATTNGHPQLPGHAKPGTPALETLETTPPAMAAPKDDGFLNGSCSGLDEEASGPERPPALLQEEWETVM
From the text: PTH1R tagged with HA was subcloned into pcDNA3.1. cDNAs from human LRP5 (Mao et al., Mol. Cell. 7:801-9 (2001)) and LRP6 (Tamai et al., Nature 407:530-35 (2000)) tagged with HA and VSVG were subcloned into pCMV and pCS2^+, respectively. LRP6N+T (LRP6 N-terminal plus the transmembrane domain) and LRP6T+C (LRP6 transmembrane domain plus C-terminal) tagged with VSVG were subcloned into pCS2^+. LRP6N+1479m, LRP6N+1490m, LRP6N+1493m and LRP6N+1496m were generated by mutagenesis of either the serine (at amino acid 1490 or amino acid 1496) or threonine (at amino acid 1479 or amino acid 1493) to alanine LRP6N-IgG was generated by fusing the LRP6 extracellular domain with IgG (Tamai et al., Nature 407:530-35 (2000)). si-GFP (Wan et al., Am. J. Pathol. 166:1379-92 (2005)) and si-LRP6 plasmids were generated using a BS/U6 vector. Briefly, a 22-nucleotide oligo (oligo 1) corresponding to nucleotides 2981 to 3002 of the human LRP6 coding region was first inserted into the BS/U6 vector digested with ApaI (blunted) and HindIII. The inverted motif that contains the six-nucleotide spacer and five Ts (oligo 2) was then subcloned into the HindIII and EcoRI sites of the intermediate plasmid to generate BS/U6/LRP5/6.
as §1

O=S(=O)(NCCNC/C=C/c1ccc(Br)cc1)c1cccc2cnccc12 [H89]
effect on Wnt3a-stimulated β-catenin-dependent transcription activity (TCF4/LEF luciferase) ([1]; UMR-106 cells): did not affect
effect on PTH-stimulated TCF/LEF luciferase (transcriptional) activity ([1]; UMR-106 cells treated with PTH): reduced
effect on PTH-induced β-catenin stabilization (β-catenin): reduced
effect on Wnt3a-stimulated β-catenin stabilization (β-catenin): did not affect
effect on Wnt3a-stimulated LRP6 phosphorylation (LRP6): did not affect
effect on binding of axin to LRP6 in cells treated with PTH (axin-LRP6 binding; PTH-treated cells): reduced

PTH (1-34): C-terminal-truncated synthetic analog of PTH with an anabolic effect on bone formation in humans (SVSEIQLMHNLGKHLNSMERVEWLRKKLQDVHNF; Parathyroid hormone; UniProt P01270 32-65, looked up, fragment)
positive staining of β-catenin in osteoblasts (β-catenin in osteoblasts; diaphyseal bone marrow): about 90.24±0.68%
positive staining of β-catenin in osteoblasts (β-catenin in osteoblasts; metaphysis subjacent to the epiphyseal growth plates): 99.08±0.57%
expression of β-catenin in preosteoblasts and osteoblasts on the bone surface (β-catenin in osteoblasts; rats, single dose, trabecular bone, within hours): induced

PTH (39-84): C-terminal fragment of PTH; binds PTH1R but does not activate PKA (APLAPRDAGSQRPRKKEDNVLVESHEKSLGEADKADVNVLTKAKSQ; Parathyroid hormone; UniProt P01270 70-115, looked up, fragment)
activating β-catenin signaling (TCF4/LEF luciferase) compared with PTH (1-84) ([1]; UMR-106 cells): much less effective than PTH (1-84)
altering the stability of β-catenin compared with PTH (1-84) (β-catenin): much less effective than PTH (1-84)
inducing axin-LRP6 binding compared with PTH (1-84) (axin-LRP6 binding): much less effective than PTH (1-84)

B1: LRP6N+T: truncated LRP6 containing the extracellular and transmembrane domains, tagged with VSVG (protein)
chain: APLLLYANRRDLRLVDATNGKENATIVVGGLEDAAAVDFVFSHGLIYWSDVSEEAIKRTEFNKTESVQNVVVSGLLSPDGLACDWLGEKLYWTDSETNRIEVSNLDGSLRKVLFWQELDQPRAIALDPSSGFMYWTDWGEVPKIERAGMDGSSRFIIINSEIYWPNGLTLDYEEQKLYWADAKLNFIHKSNLDGTNRQAVVKGSLPHPFALTLFEDILYWTDWSTHSILACNKYTGEGLREIHSDIFSPMDIHAFSQQRQPNATNPCGIDNGGCSHLCLMSPVKPFYQCACPTGVKLLENGKTCKDGATELLLLARRTDLRRISLDTPDFTDIVLQLEDIRHAIAIDYDPVEGYIYWTDDEVRAIRRSFIDGSGSQFVVTAQIAHPDGIAVDWVARNLYWTDTGTDRIEVTRLNGTMRKILISEDLEEPRAIVLDPMVGYMYWTDWGEIPKIERAALDGSDRVVLVNTSLGWPNGLALDYDEGKIYWGDAKTDKIEVMNTDGTGRRVLVEDKIPHIFGFTLLGDYVYWTDWQRRSIERVHKRSAEREVIIDQLPDLMGLKATNVHRVIGSNPCAEENGGCSHLCLYRPQGLRCACPIGFELISDMKTCIVPEAFLLFSRRADIRRISLETNNNNVAIPLTGVKEASALDFDVTDNRIYWTDISLKTISRAFMNGSALEHVVEFGLDYPEGMAVDWLGKNLYWADTGTNRIEVSKLDGQHRQVLVWKDLDSPRALALDPAEGFMYWTEWGGKPKIDRAAMDGSERTTLVPNVGRANGLTIDYAKRRLYWTDLDTNLIESSNMLGLNREVIADDLPHPFGLTQYQDYIYWTDWSRRSIERANKTSGQNRTIIQGHLDYVMDILVFHSSRQSGWNECASSNGHCSHLCLAVPVGGFVCGCPAHYSLNADNRTCSAPTTFLLFSQKSAINRMVIDEQQSPDIILPIHSLRNVRAIDYDPLDKQLYWIDSRQNMIRKAQEDGSQGFTVVVSSVPSQNLEIQPYDLSIDIYSRYIYWTCEATNVINVTRLDGRSVGVVLKGEQDRPRAVVVNPEKGYMYFTNLQERSPKIERAALDGTEREVLFFSGLSKPIALALDSRLGKLFWADSDLRRIESSDLSGANRIVLEDSNILQPVGLTVFENWLYWIDKQQQMIEKIDMTGREGRTKVQARIAQLSDIHAVKELNLQEYRQHPCAQDNGGCSHICLVKGDGTTRCSCPMHLVLLQDELSCGEPPTCSPQQFTCFTGEIDCIPVAWRCDGFTECEDHSDELNCPVCSESQFQCASGQCIDGALRCNGDANCQDKSDEKNCEVLCLIDQFRCANGQCIGKHKKCDHNVDCSDKSDELDCYPTEEPAPQATNTVGSVIGVIVTIFVSGTVYFI
modifications: left off: small tags and cut ends
notes: truncated LRP6 containing the extracellular and transmembrane domains, tagged with VSVG
binding of LRP6 construct to PTH1R (IP assay) (PTH1R): associated with PTH1R as effectively as did full-length LRP6
